Results: PubChem BioAssay AID1508591

Conditions: rat; liver microsomes; pH 7.4; 15.0 min; 1.0 µM

Question: With O=C1Nc2ccccc2/C1=C/c1ccnc2ccccc12 as the compound, how does the half-life read?
Answer: 4.5 min

Question: For Cc1ccc(-c2csc(N3CCC(C(N)=O)CC3)n2)cc1, which half-life is on record?
Answer: 2.22 min

Question: Which half-life does the source give for CCc1ccc(-n2nc(C)c3c2NC(=O)CSC3c2ccccc2C)cc1 (stereo unspecified) here?
Answer: 2.44 min

Question: Which half-life does the source give for COCCn1ccc2c(C3=CCOCC3)nc(-c3cccc(NC(C)=O)c3)cc21 here?
Answer: > 30 min

Question: For CC(C)c1ccccc1-c1ncc(F)c(NCC2CCN(c3cnccn3)C2)n1 (stereo unspecified), which half-life is on record?
Answer: 2.2 min

Question: With COc1ccc(-c2ccc3nc(-c4cc(F)cc(F)c4F)oc3c2)c(OC)c1OC as the compound, how does the half-life read?
Answer: > 30 min

Question: Which half-life does the source give for Cc1ccccc1Nc1c(-c2ccccc2O)nc2sccn12 here?
Answer: 2.71 min

Question: Which half-life does the source give for O=[S+]([O-])(Nc1ccc2ccccc2c1)c1ccc(NCc2ccc(Cl)cc2O)cc1 here?
Answer: 21 min

Question: Which half-life does the source give for Cc1nnc2c3ccccc3nc(N3CCN(c4ccccc4)CC3)n12 here?
Answer: > 30 min

Question: Which half-life does the source give for O=C(c1ccccc1)N1CCC(C(=O)N2CCC(N3Cc4ccccc4C3=O)CC2)CC1 here?
Answer: > 30 min

Question: For COc1ccc(Cn2c(=O)[nH]c3cc(C(=O)NCCCN4CCCCC4)ccc3c2=O)cc1, which half-life is on record?
Answer: > 30 min

Question: Which half-life does the source give for COc1cc(Nc2nc(-c3ccncc3)nc3ccccc23)ccc1Cl here?
Answer: 12 min

Question: With CC[C@H]1C=CC=CC[C@@H](C)[C@H](O)[C@@](C)(O)C(=O)[C@@H](C)[C@H](O)[C@@H](C)C(=O)[C@@H](C)[C@H](O)[C@@H](C)C=CC(=O)O[C@@H]2[C@@H](C)[C@H](CC1)O[C@]1(CC[C@H](C)[C@H](C[C@@H](C)O)O1)[C@H]2C as the compound, how does the half-life read?
Answer: > 30 min

Question: Which half-life does the source give for NC(=O)C1CCN(c2nccc(-c3ccc4c(c3)OCCCO4)n2)CC1 here?
Answer: 4.28 min

Question: For COc1cccc(C(=O)Nc2ccc3oc(-c4ccc5ccccc5c4)nc3c2)c1, which half-life is on record?
Answer: 27.9 min

Question: For O=C(Nc1ccc2oc(-c3cccnc3)nc2c1)c1ccc(-c2ccccc2)o1, which half-life is on record?
Answer: 14.4 min

Question: Which half-life does the source give for Fc1cc(Nc2nc(-c3ccncc3)nc3ccccc23)ccc1-c1cccnc1 here?
Answer: 17 min

Question: With NC(=O)C1CCN(c2nc(-c3ccc(OC(F)(F)F)cc3)cs2)CC1 as the compound, how does the half-life read?
Answer: 7.66 min

Question: For Cc1ccc(Nc2nc(C)c(NC(=O)c3ccc(C)cc3)c(Nc3ccc(C)cc3)n2)cc1, which half-life is on record?
Answer: 20.1 min

Question: Which half-life does the source give for NC(=O)C1CCN(c2nc(-c3ccc(N)cc3)cs2)CC1 here?
Answer: > 30 min

Question: For CC(=O)NC(c1cccs1)c1cc(Br)c2cccnc2c1O (stereo unspecified), which half-life is on record?
Answer: 5.21 min

Question: For Cc1ccc2oc3c(c(=O)c2c1)C(c1cccc(O)c1)N(CCCN1CCOCC1)C3=O (stereo unspecified), which half-life is on record?
Answer: 9.55 min

Question: Which half-life does the source give for CNc1nccc(-c2cccc3ccccc23)n1 here?
Answer: 7.7 min

Question: With Cc1cc(-c2nnc3n2CCCCC3)c(C)n1-c1ccc(Br)cc1 as the compound, how does the half-life read?
Answer: 2.2 min

Question: For COC(=O)CNC(=O)c1nc(-c2ccc(Cl)nc2)c2cnccn12, which half-life is on record?
Answer: 16.4 min

Question: Which half-life does the source give for CC(C)c1ccccc1-c1nc(NCc2ccc(-c3cccnc3)cc2)c2ccccc2n1 here?
Answer: 9.21 min

Question: With Cc1ccc(O)c(-c2cc(-c3ccccc3C)[nH]n2)c1 as the compound, how does the half-life read?
Answer: 24.4 min

Question: For COc1cc(-c2nc(Nc3ccc(F)c(F)c3)c3ccccc3n2)cc(OC)n1, which half-life is on record?
Answer: > 30 min

Question: For NC1(c2ccc(NC(=O)c3ccnc(-c4cc(C(=O)O)ccn4)c3)cc2)CC1, which half-life is on record?
Answer: > 30 min

Question: For CCOc1ccc(CCNC(=O)c2cc3ccccc3n2Cc2ccc(Cl)c(F)c2)cc1OCC, which half-life is on record?
Answer: 1.7 min

Question: With O=C(Nc1nnc(-c2ccco2)o1)c1ccc(Cl)cc1 as the compound, how does the half-life read?
Answer: 10.8 min

Question: With COc1ccc(-c2cnc(N3CCC(C(N)=O)CC3)s2)cc1OC as the compound, how does the half-life read?
Answer: > 30 min

Question: Which half-life does the source give for O=C(Nc1ccc(S(=O)(=O)Nc2nccs2)cc1)c1cccnc1 here?
Answer: > 30 min

Question: Which half-life does the source give for Fc1cc(Nc2nc(-c3ccncc3)nc3ccccc23)ccc1OC(F)(F)F here?
Answer: > 30 min

Question: For Cc1cc(NS(=O)(=O)c2ccc(N(C)C(=O)Cc3ccc(Cl)c(Cl)c3)cc2)no1, which half-life is on record?
Answer: > 30 min

Question: For O=C(Nc1ccc(Cl)cc1)C(NS(=O)(=O)c1cccs1)c1ccccc1 (stereo unspecified), which half-life is on record?
Answer: 5.38 min

Question: With COC(=O)c1ccc2c(c1)nc1n2[C@@H](CNC(C)=O)COC1 as the compound, how does the half-life read?
Answer: > 30 min

Question: For Fc1ccc(Nc2nc(-c3ccccc3)nc3ccccc23)cc1F, which half-life is on record?
Answer: > 30 min

Question: Which half-life does the source give for Cc1cccc(-n2c(C)cc(C=C(C#N)C#N)c2C)c1 here?
Answer: 1.64 min

Question: With CC[S+](=O)([O-])Nc1ccccc1C(=O)Nc1nc(-c2ccccc2)cs1 as the compound, how does the half-life read?
Answer: 14 min

Question: With Cc1cn2c(-c3cn[nH]c3)cnc2c(Nc2ccc(C(=O)N3CCNCC3)cc2F)n1 as the compound, how does the half-life read?
Answer: 7 min

Question: With O=S(=O)(c1ccc(Cl)cc1)c1ccccn1 as the compound, how does the half-life read?
Answer: > 30 min

Question: With O=c1cc(-c2nc(Nc3ccc(F)c(F)c3)c3ccccc3n2)cc[nH]1 as the compound, how does the half-life read?
Answer: > 30 min

Question: Which half-life does the source give for Cc1ccc2c(c1)c(=O)c1ccccc1n2CCCC(=O)Nc1cc(Cl)ccc1C here?
Answer: 3.79 min

Question: For CCOC(=O)C1=C(CN(CC)Cc2ccccc2)NC(=O)NC1c1ccc(OC(C)C)cc1 (stereo unspecified), which half-life is on record?
Answer: 1.2 min

Question: For CCC(C)N(C)C(=O)c1cc2ccccc2c(-c2ccccc2Cl)n1 (stereo unspecified), which half-life is on record?
Answer: 3.84 min

Question: For O=C(NCCc1cnc[nH]1)c1ccc(-c2ncc3cnc(-c4cccc(F)c4)cn23)cc1, which half-life is on record?
Answer: > 30 min

Question: For CCN1CCc2c(sc(NC(=O)Nc3ccc(Cl)c(Cl)c3)c2C(N)=O)C1, which half-life is on record?
Answer: > 30 min

Question: For CCN(CC)CCCCNc1ncc2cc(-c3c(Cl)cccc3Cl)c(NC(=O)NC(C)(C)C)nc2n1, which half-life is on record?
Answer: > 30 min

Question: With Cc1ccc(S(=O)(=O)n2cc(C(=O)Nc3ccc(-c4ccccc4)cc3)c3ccccc32)cc1 as the compound, how does the half-life read?
Answer: 14 min

Question: For C[C@@H](CCC[C@@H]1SC[C@H]2NC(=O)N[C@H]12)C(=O)O, which half-life is on record?
Answer: > 30 min
